{
  "source": "PubChem BioAssay (NCI)",
  "tested_on": "MDA-MB-468 breast",
  "assay": "inhibition of tumour cell growth, NCI panel, 48 h",
  "note": "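Five concentrations, 48 hours, 96-well plates. The concentration for 50% growth inhibition is given as GI50. TGI is the concentration that stops growth completely.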",
  "data": [
    {"smiles": "CC1=C([Se]CC(OC(=O)[C@@H](CO)NC(=O)OC(C)(C)C)C(=O)NCCCCCC(=O)OCc2ccccc2)C(=O)c2ccccc2C1=O", "note": "(some centres undefined)", "values": [
      {"measurement": "GI50", "result": 1.49, "unit": "µM"},
      {"measurement": "TGI", "result": 3.16, "unit": "µM"}
    ]},
    {"smiles": "COc1cnc2c(c1)C(=O)c1c-2n(CCCN2CCNCC2)c(=O)c2cc([N+](=O)[O-])ccc12", "values": [
      {"measurement": "GI50", "result": 0.257, "unit": "µM"},
      {"measurement": "TGI", "result": 1.35, "unit": "µM"}
    ]},
    {"smiles": "CCn1ccc(NS(=O)(=O)c2ccc(N)cc2)nc1=O", "values": [
      {"measurement": "GI50", "result": "> 100", "unit": "µM"},
      {"measurement": "TGI", "result": "> 100", "unit": "µM"}
    ]},
    {"smiles": "C=CCc1c(O)c(C(=O)/C=C/c2ccccc2)c(OC)c2ccoc12", "values": [
      {"measurement": "GI50", "result": 3.07, "unit": "µM"},
      {"measurement": "TGI", "result": 11.4, "unit": "µM"}
    ]},
    {"smiles": "C=C1C(=O)O[C@H]2[C@H]1CC/C(COC(=O)NCCCCCCCCNC(=O)OC/C1=C/CC[C@@]3(C)O[C@H]3[C@H]3OC(=O)C(=C)[C@@H]3CC1)=C\\CC[C@@]1(C)O[C@@H]21", "values": [
      {"measurement": "GI50", "result": 0.191, "unit": "µM"},
      {"measurement": "TGI", "result": 0.462, "unit": "µM"}
    ]},
    {"smiles": "Nc1ncnc2c1ccn2[C@@H]1O[C@H]([C@H](O)c2ccc(Cl)c(F)c2)[C@@H](O)[C@H]1O", "values": [
      {"measurement": "GI50", "result": 40.7, "unit": "µM"},
      {"measurement": "TGI", "result": "> 100", "unit": "µM"}
    ]},
    {"smiles": "CN1CCN(Cc2cc(NC(=O)c3cccc(C#Cc4cccc5[nH]nc(N)c45)c3)cc(C(F)(F)F)c2)CC1", "values": [
      {"measurement": "GI50", "result": 1.75, "unit": "µM"},
      {"measurement": "TGI", "result": 3.35, "unit": "µM"}
    ]}
  ]
}
